Five compounds from patent publication US20240190876A1, “Tricyclic Urea Compounds As JAK2 V617F Inhibitors” (Incyte Corporation, priority 2022, published 2024) can be followed below.

The test system of series [1] is KIT. The series can be described thus: KIT Enzymatic Assay. To be noted: ratio KIT IC50 / JH2 V617F binding IC50. It is filed as biochemical. The protocol: (§1) The kinase assays were carried out at room temperature in assay buffer (HEPES 50 mM, pH 7.0, NaN3 0.02%, BSA 0.01%, Orthovanadate 0.1 mM, DTT 1 mM, MgCl2 10 mM) in a final volume of 10 μL. Testing compounds were prepared by serial dilution in DMSO and transferred to the plate wells by ECHO liquid handler (Labcyte) with 0.5% DMSO in the final assay. […]. Reactions were initiated by the addition of 5 μL ATP in assay buffer. The final 10 μL kinase reaction consists of 0.12 nM KIT, 1 mM ATP, 500 nM TK Substrate-biotin and SEB reagent 62.5 nM in assay buffer. […] The plates were then sealed and centrifuged at 1800 rpm for 2 minutes. After 60 minutes incubation at room temperature, the product activity was determined by measuring the fluorescence at 620 nm and 665 nm on Pherastar microplate reader (BMG Labtech). A ratio is calculated (665/620 nm) for each well. Wells with DMSO only were served as the positive controls and wells containing no ATP were used as negative controls. IC50 determination was performed by fitting the curve of percent control activity versus the log of the compound concentration using the GraphPad Prism 7.0 software.

The target in series [2] is T1, FLT3 (Homo sapiens, UniProt P36888).
T1 sequence (P36888 27-993): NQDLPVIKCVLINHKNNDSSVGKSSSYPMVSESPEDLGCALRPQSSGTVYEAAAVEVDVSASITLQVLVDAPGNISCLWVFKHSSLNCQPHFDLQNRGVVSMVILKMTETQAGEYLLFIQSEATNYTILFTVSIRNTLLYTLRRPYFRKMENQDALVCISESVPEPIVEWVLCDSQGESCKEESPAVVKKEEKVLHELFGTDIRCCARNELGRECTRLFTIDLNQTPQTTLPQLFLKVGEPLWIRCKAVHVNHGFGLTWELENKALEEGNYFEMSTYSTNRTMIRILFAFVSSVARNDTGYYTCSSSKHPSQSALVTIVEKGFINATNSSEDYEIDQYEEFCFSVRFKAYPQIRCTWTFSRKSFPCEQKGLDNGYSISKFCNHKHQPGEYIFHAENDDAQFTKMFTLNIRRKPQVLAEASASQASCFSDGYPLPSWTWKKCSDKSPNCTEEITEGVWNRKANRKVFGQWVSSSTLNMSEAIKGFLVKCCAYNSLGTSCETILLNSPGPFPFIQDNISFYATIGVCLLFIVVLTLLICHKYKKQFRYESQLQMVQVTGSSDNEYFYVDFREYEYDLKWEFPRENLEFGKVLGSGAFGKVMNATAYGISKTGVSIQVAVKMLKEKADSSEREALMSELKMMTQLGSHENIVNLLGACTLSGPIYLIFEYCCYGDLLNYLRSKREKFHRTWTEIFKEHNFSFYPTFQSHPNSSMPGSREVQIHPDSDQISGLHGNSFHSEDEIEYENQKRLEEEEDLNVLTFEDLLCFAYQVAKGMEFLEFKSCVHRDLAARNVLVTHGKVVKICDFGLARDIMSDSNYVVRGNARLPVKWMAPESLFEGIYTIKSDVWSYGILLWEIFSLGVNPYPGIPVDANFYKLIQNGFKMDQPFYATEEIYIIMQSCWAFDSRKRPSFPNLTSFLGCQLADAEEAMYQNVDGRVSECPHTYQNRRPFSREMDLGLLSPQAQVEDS
The series can be described thus: FLT3 Enzymatic Assay. It is filed as biochemical. To be noted: HTRF kinase assay, 1 mM ATP. The protocol:
as §1, with “0.011” for “0.12”, “FLT3,” for “KIT,”
(Time-resolved FRET reads energy transfer from a long-lived donor to a nearby acceptor.)

In series [3] the test system is FLT3. Put plainly: FLT3 Enzymatic Assay. It is filed as biochemical. To be noted: ratio FLT3 IC50 / JH2 V617F binding IC50. On the procedure: as §1, with “0.011” for “0.12”, “FLT3,” for “KIT,”
Series [4] can be described thus: In Vitro Intrinsic Clearance. The format is in vitro ADME. The following applies: human liver microsomes, 1 μM compound, NADPH, scaled to human. On the procedure: For in vitro metabolic stability experiments, test compounds were incubated with human liver microsomes at 37° C. The incubation mixture contained test compounds (1 μM), NADPH (2 mM), and human liver microsomes ([…]) in 100 mM phosphate buffer (pH 7.4). The mixture was pre-incubated for 2 min at 37° C. before the addition of NADPH. Reactions were commenced upon the addition of NADPH and quenched with ice-cold methanol at 0, 10, 20, and 30 min. Terminated incubation mixtures were analyzed using LC-MS/MS system. The analytical system consisted of a Shimadzu LC-30AD binary pump system and SIL-30AC autosampler (Shimadzu Scientific Instruments, Columbia, MD) coupled with a Sciex Triple Quad 6500+mass spectrometer from Applied Biosystems (Foster City, CA). […] Mobile phase A consisted of 0.1% formic acid in water, and mobile phase B consisted of 0.1% formic acid in acetonirile. The total LC-MS/MS runtime was 2.75 minutes with a flow rate of 0.75 mL/min. Peak area integrations and peak area ratio calculations were performed using Analyst software (version 1.6.3) from Applied Biosystems.
The in vitro intrinsic clearance, CLint, in vitro, was calculated from the t1/2 of test compound disappearance as CLint, in vitro=(0.693/t1/2)×(1/Cprotein), where Cprotein is the protein concentration during the incubation, and t1/2 was determined by the slope (k) of the log-linear regression analysis of the concentration versus time profiles; thus, t1/2ln2/k. The CLint, in vitro values were scaled to the in vivo values for human by using physiologically based scaling factors, hepatic microsomal protein concentrations (45 mg protein/g liver), and liver weights (21 g/kg body weight). The equation CLint=CLint, in vitro×(mg protein/g liver weight)×(g liver weight/kg body weight) was used. The in vivo hepatic clearance (CLH) was then calculated by using CLint and hepatic blood flow, Q (20 mL·min^−1kg^−1 in humans) in the well-stirred liver model disregarding all binding from CLH (Q×CLint)/(Q+CLint). The hepatic extraction ratio was calculated as CLH divided by Q.
(Microsomes from liver hold many membrane-bound enzymes, among them those of drug oxidation.)

Series [5] deals with KIT (Homo sapiens, UniProt P10721). The series can be described thus: KIT Enzymatic Assay. The format is biochemical. The following applies: HTRF kinase assay, 1 mM ATP. On the procedure: as §1
Sequence of KIT (Homo sapiens, UniProt P10721) (P10721 26-976, species assumed): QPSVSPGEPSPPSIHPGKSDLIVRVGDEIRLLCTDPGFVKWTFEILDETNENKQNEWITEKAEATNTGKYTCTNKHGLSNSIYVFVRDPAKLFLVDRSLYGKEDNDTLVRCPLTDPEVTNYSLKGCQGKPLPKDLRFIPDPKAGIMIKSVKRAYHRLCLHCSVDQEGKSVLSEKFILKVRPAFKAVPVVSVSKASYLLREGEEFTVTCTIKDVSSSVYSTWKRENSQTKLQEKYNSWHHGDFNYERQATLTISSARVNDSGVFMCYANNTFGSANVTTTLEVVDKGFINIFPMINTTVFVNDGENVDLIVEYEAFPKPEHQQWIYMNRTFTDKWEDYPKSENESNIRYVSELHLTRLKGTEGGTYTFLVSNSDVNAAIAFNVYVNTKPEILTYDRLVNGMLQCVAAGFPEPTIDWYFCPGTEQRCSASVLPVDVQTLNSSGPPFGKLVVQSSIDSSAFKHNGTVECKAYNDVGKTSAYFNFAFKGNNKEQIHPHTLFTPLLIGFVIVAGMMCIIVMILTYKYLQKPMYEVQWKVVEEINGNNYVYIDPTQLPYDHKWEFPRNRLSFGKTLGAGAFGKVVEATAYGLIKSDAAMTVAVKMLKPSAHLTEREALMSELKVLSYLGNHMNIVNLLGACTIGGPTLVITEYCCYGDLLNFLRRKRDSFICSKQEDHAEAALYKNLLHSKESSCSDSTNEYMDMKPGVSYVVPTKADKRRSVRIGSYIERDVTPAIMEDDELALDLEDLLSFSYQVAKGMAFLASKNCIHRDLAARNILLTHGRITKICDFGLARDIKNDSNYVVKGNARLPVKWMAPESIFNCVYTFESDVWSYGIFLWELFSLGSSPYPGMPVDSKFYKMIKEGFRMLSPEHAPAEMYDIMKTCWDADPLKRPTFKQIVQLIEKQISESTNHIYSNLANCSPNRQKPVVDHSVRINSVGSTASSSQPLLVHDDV

A word on the IC50: it is the concentration needed to halve the response being measured. Low readings indicate inhibition by little substance, high ones a need for much substance. Consider `COc1nn(C)cc1-c1[nH]c2ncc3c(c2c1-c1ccc2c(cnn2C)c1)n(C1CCOCC1)c(=O)n3C` [Comparative Example A, reference compound], for which the “Selectivity KIT/JH2 V617F” value with KIT [1] was “* (* refers to selectivity of ≤500-fold)”. This compound also showed an IC50 on FLT3 [2] of 0.25 to 1.25 µM. Also, in the series with FLT3 [3], the “Selectivity FLT3/JH2 V617F” value is listed as “* (* refers to selectivity of ≤500-fold)”. In addition, in series [4], the h-IntCL result is “‡ ‡ ‡ (‡ ‡ ‡ refers to h-IntCL of >1 L/h/kg)”.

In the case of `[2H]C([2H])([2H])n1ncc2cc(-c3c(-c4cn(C)nc4OC)[nH]c4ncc5c(c34)n(C3CCOCC3)c(=O)n5C)ccc21` [Comparative Example B, reference compound], the “Selectivity KIT/JH2 V617F” value in the series with KIT [1] is given as “** (** refers to selectivity of >500-fold to ≤1500-fold)”. Further, the IC50 at KIT [5] fell in the range of 1.25 to 2.5 µM; against FLT3 [2], 0.25 to 1.25 µM. Also, the “Selectivity FLT3/JH2 V617F” value with FLT3 [3] is listed as “* (* refers to selectivity of ≤500-fold)”. The h-IntCL entry in series [4] is given as “‡ ‡ (‡ ‡ refers to h-IntCL of ≥0.7 L/h/kg to ≤1 L/h/kg)”.

In the case of `Cn1cc(-c2[nH]c3ncc4c(c3c2-c2ccc3c(cnn3C)c2)n([C@H]2CC[C@@H](CC#N)CC2)c(=O)n4C)cn1` [Comparative Example C, reference compound], the “Selectivity KIT/JH2 V617F” value with KIT [1] was “* (* refers to selectivity of ≤500-fold)”. Further, the results for the IC50 against KIT [5] and on FLT3 [2] were 0.025 to 0.25 µM and at most 0.025 µM, respectively. For the same compound, in the series on FLT3 [3], the “Selectivity FLT3/JH2 V617F” value was “* (* refers to selectivity of ≤500-fold)”. In series [4], the h-IntCL result is given as “‡ ‡ ‡ (‡ ‡ ‡ refers to h-IntCL of >1 L/h/kg)”.

Take `COc1ccc(-c2c(-c3cnn(Cc4ccncc4)c3)[nH]c3ncc4c(c23)n(C2CCCC2)c(=O)n4C)cc1` [Comparative Example D, reference compound]: the h-IntCL entry in series [4] is reported as “‡ ‡ ‡ (‡ ‡ ‡ refers to h-IntCL of >1 L/h/kg)”.

Turning to `COc1nn(C)cc1-c1[nH]c2ncc3c(c2c1-c1ccc2c(cnn2C)c1)n([C@H]1CC[C@@H](CC#N)CC1)c(=O)n3C` [Comparative Example E, reference compound], the “Selectivity KIT/JH2 V617F” value in the series with KIT [1] is given as “*** (*** refers to selectivity of >1500-fold to ≤1750-fold)”. For the same compound, in the series with FLT3 [3], the “Selectivity FLT3/JH2 V617F” value is reported as “* (* refers to selectivity of ≤500-fold)”. The h-IntCL entry in series [4] is given as “‡ ‡ ‡ (‡ ‡ ‡ refers to h-IntCL of >1 L/h/kg)”.
